Experimental data as given in patent US11013780B2, “Methods of treating female infertility” (Myovant Sciences GmbH, priority 2016, dated 2021).
Like-named read-outs stand apart in the source and are kept apart here. Where a SMILES comes first, the peptide text is derived from it. [ ]: non-standard residue; d: D form. Arg(Me) = CNC(=N)NCCC[C@H](N)C(=O)O; Hyp = O=C(O)[C@@H]1C[C@@H](O)CN1; azaGly = NNC(=O)O

What was measured:
[1] = biological target: T1, rat KISS1R (Rattus norvegicus, UniProt Q924U1); experiment: Intracellular Ca2+ mobilization (fluorometric imaging plate reader), rat KISS1R; assay type: cell-based
T1 construct: expressed in transfected cells; host or cells: Chinese hamster ovary dihydrofolate reductase negative cells
Method: The effects of API-MA on intracellular Ca^2+ mobilization in KISS1R-expressing recombinant cells were evaluated by performing the fluorometric imaging plate reader assay.

[2] = Pharmacokinetics in rats after SC and IV administration; details: rat, in vivo, rats; for AUC(0-t): read-out: AUC(0-24); for level at 5 min: read-out: C5min; for Cmax: read-out: Cmax
Method: The PK of API-MA was studied in rats after SC and IV administration.
The PK linearity of API-MA was also investigated in rats after IV administration. The plasma C5min and AUC(0-24) values increased dose-proportionally. […] The elimination T1/2 values were 0.4 hours at 0.01 and 0.1 mg/kg and 0.5 hours at 1 mg/kg. These findings indicate that the PK of API-FB was linear in rats after single IV administration over the dose range of 0.01 to 1 mg/kg. The greater than dose-proportional increase in the first-pass kinetics with SC administration would indicate nonlinear PK in rats after SC administration.

[3] = Pharmacokinetics in dogs after SC and IV administration; details: dog, in vivo, dogs; for AUC(0-t): read-out: AUC(0-24); for Cmax: read-out: Cmax; for bioavailability: read-out: BA (bioavailability)
From the text: The PK of API-MA was studied in dogs after SC and IV administration.

[4] = Pharmacokinetics in monkeys after SC and IV administration; details: monkey, in vivo, monkeys; for AUC(0-t): read-out: AUC(0-24); for bioavailability: read-out: BA (bioavailability); for Cmax: read-out: Cmax
From the text: The PK of API-MA was studied in monkeys after SC and IV administration.

[5] = PK across species (rats, dogs, monkeys), SC bioavailability; assay type: in vivo; details: rat, dog, monkey, plasma, read-out: Bioavailability after SC administration
From the text: The PK of API-MA was studied in rats, dogs, and monkeys.

[6] = Multiple-dose PK, 2-hour SC infusion once daily for 14 days, Japanese prostate cancer patients; assay type: in vivo, human; details: for half-life / Cmax / Tmax / AUC / Vd/F / AUC(0-inf) / MRT: male, human, in vivo; for AUC: read-out: AUC (0-tau); for Vd/F: read-out: Vz/F
Method: It was an open-label, ascending dose study of API-MA administered via 2-hour SC infusion once daily for 14 days that was expected to suppress testosterone in Japanese hormone-naïve prostate cancer patients. Six patients received API-MA at doses of 0.5 mg (3 patients) and 1.0 mg (3 patients) a day for 14 days.
To measure plasma concentrations of API-MA, blood specimens were collected at the following times: Day 1 (predose and 2, 4, 6, 10 hours postdose); days 2, 4, 6, 8, 10, and 12 (predose); day 14 (predose and 2, 4, 6, 10, 24, 48 hours postdose); day 21; and day 28. To measure urinary excretion of API-MA, urine specimens were collected at the following times: Day 1 (predose and 0 to 4, 4 to 8, 8 to 12, 12 to 24 hours postdose) and day 14 (0 to 4, 4 to 8, 8 to 12, 12 to 24 hours postdose).

[7] = test system: serum LH and FSH; experiment: Single dose pharmacodynamics (LH, FSH), Japanese men; assay type: in vivo, human; details: single dose 0.001 to 0.5 mg
Method: In the phase 1 clinical study of API-MA, subjects enrolled in the first seven cohorts received single SC bolus doses of 0.001, 0.004, 0.01, 0.04, 0.1, 0.25 or 0.5 mg of API-MA or placebo. Subjects enrolled in the eighth and ninth cohorts received single SC infusion doses of 0.25 or 0.5 mg of API-MA or placebo. The pharmacodynamics of the following hormones were assessed: LH, FSH, dihydroepiandrosterone sulfate (DHEA-S), growth hormone (GH), prolactin (PRL), thyroid-stimulating hormone (TSH), and adrenocorticotropic hormone (ACTH). The pharmacodynamic analysis set consisted of 37 subjects (bolus cohorts: 29; infusion cohorts: 8). […] In addition, blood specimens were collected for the measurement of LH and FSH on the day prior to dosing with API-MA. The time courses of mean serum LH concentrations following a single SC bolus of API-MA at doses ranging from 0.001 mg to 0.5 mg are shown in FIG. 6. The LH concentrations peaked between 12 and 24 hours and generally returned to baseline by 72 hours postdose. The magnitudes and durations of the LH concentration increases were similar across the dose range, 0.001 to 0.5 mg. The LH time courses were similar following a single 2-hour SC infusion of API-MA (data not shown).

[8] = IV 1 mg/kg, read-out: T½ γ (elimination) (converted)
[9] = SC 0.1 to 10 mg/kg, read-out: Tmax, range over the tested SC doses
[10] = bolus IV 1 mg/kg, read-out: Cmax (C5 min)
[11] = Japanese prostate cancer patients, 2-hour SC infusion 0.5 mg/day, Day 1, mean
[12] = Japanese prostate cancer patients, 2-hour SC infusion 0.5 mg/day, Day 14, mean
[13] = Japanese prostate cancer patients, 2-hour SC infusion 1.0 mg/day, Day 1, mean
[14] = Japanese prostate cancer patients, 2-hour SC infusion 1.0 mg/day, Day 14, mean
[15] = sc, 0.5 mg/day, Japanese prostate cancer patients, 2-hour SC infusion 0.5 mg/day, Day 1, mean
[16] = sc, 0.5 mg/day, Japanese prostate cancer patients, 2-hour SC infusion 0.5 mg/day, Day 14, mean
[17] = sc, 1 mg/day, Japanese prostate cancer patients, 2-hour SC infusion 1.0 mg/day, Day 1, mean
[18] = sc, 1 mg/day, Japanese prostate cancer patients, 2-hour SC infusion 1.0 mg/day, Day 14, mean

T1 sequence (Q924U1 whole entry): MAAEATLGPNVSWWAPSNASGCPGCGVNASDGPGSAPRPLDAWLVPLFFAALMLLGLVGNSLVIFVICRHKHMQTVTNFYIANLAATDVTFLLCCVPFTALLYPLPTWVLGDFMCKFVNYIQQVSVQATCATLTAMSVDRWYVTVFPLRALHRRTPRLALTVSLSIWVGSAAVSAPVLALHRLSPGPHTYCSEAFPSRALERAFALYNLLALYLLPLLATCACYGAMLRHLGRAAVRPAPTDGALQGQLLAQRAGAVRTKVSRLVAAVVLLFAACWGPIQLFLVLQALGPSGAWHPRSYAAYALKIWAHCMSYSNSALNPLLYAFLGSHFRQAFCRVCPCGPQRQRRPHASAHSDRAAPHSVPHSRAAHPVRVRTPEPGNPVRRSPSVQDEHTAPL

## CC(=O)O.CNC(=N)NCCC[C@H](NC(=O)[C@H](CC(C)C)NC(=O)NNC(=O)[C@H](Cc1ccccc1)NC(=O)[C@@H](NC(=O)[C@H](CC(N)=O)NC(=O)[C@@H]1C[C@@H](O)CN1C(=O)[C@@H](Cc1ccc(O)cc1)NC(C)=O)[C@@H](C)O)C(=O)N[C@@H](Cc1c[nH]c2ccccc12)C(N)=O [API-MA, 2-(N-Acetyl-D-tyrosyl-trans-4-hydroxy-L-prolyl-Lasparaginyl-L-threonyl-L-phenylalanyl)-hydrazinocarbonyl-L-leucyl-Nω-methyl-L-arginyl-L-tryptophanamide monoacetate] (Ac-[dY][Hyp]NTF[azaGly]L[Arg(Me)]W-NH2)
[1]
  EC50: 632 pM
[1]; rat KISS1R
  Ratio of EC50 of API-MA to kisspeptin (45-54): 2.0
[2]; iv, 0.01 mg/kg, IV 0.01 mg/kg, PK linearity study
  AUC(0-t): 14 ng·h/mL
[2]; iv, 0.1 mg/kg, IV 0.1 mg/kg, PK linearity study
  AUC(0-t): 140 ng·h/mL
[2]; iv, 1 mg/kg, IV 1 mg/kg, PK linearity study
  AUC(0-t): 1390 ng·h/mL
[2]; iv, 1 mg/kg, IV 1 mg/kg
  AUC(0-t): 1460 ng·h/mL
[2]; sc, 1 mg/kg, SC 1 mg/kg, mean ± SD (n = 5)
  AUC(0-t): 804 ng·h/mL
[2]; sc, 10 mg/kg, SC 10 mg/kg, mean ± SD (n = 5)
  AUC(0-t): 309 ng·h/mL
[2]; IV 0.01 mg/kg, PK linearity study
  level at 5 min: 24.1 ng/mL
[2]; IV 0.01 mg/kg, PK linearity study, read-out: Elimination T1/2 (converted)
  half-life: 0.4 h
[2]; IV 0.1 mg/kg, PK linearity study
  level at 5 min: 250 ng/mL
[2]; IV 0.1 mg/kg, PK linearity study, read-out: Elimination T1/2 (converted)
  half-life: 0.4 h
[2]; IV 1 mg/kg, PK linearity study
  level at 5 min: 2580 ng/mL
[2]; IV 1 mg/kg, plasma concentration at 5 minutes, read-out: Cmax (C5 min)
  Cmax at 5 min: 2670 ng/mL
[2]; IV 1 mg/kg, read-out: T1/2 alpha phase (converted)
  half-life: 0.5 h
[2]; SC 1 mg/kg, mean ± SD (n = 5)
  Cmax: 381 ng/mL
[2]; SC 1 mg/kg, read-out: BA (bioavailability)
  bioavailability: 55.3%
[2]; SC 10 mg/kg, mean ± SD (n = 5)
  Cmax: 285 ng/mL
[2]; SC, read-out: Tmax, range over all tested SC doses
  Tmax: 0.3 to 0.9 h
[3]; IV 1 mg/kg
  AUC(0-t): 3090 ng·h/mL
[3]; [8]
  half-life: 3 h
[3]; SC 0.1 mg/kg, mean ± SD (n = 4)
  Cmax: 86.6 ng/mL
[3]; SC 0.1 mg/kg
  AUC(0-t): 252 ng·h/mL
  bioavailability: 81.5%
[3]; SC 1 mg/kg
  AUC(0-t): 2600 ng·h/mL
  bioavailability: 84%
  Cmax: 883 ng/mL
[3]; SC 10 mg/kg
  AUC(0-t): 28600 ng·h/mL
  bioavailability: 92.7%
  Cmax: 8840 ng/mL
[3]; [9]
  Tmax: 0.8 to 1 h
[3]; [10]
  Cmax at 5 min: 4250 ng/mL
[4]; IV 1 mg/kg
  AUC(0-t): 3160 ng·h/mL
[4]; [8]
  half-life: 3.2 h
[4]; SC 0.1 mg/kg
  AUC(0-t): 295 ng·h/mL
  bioavailability: 94.9%
  Cmax: 123 ng/mL
[4]; SC 1 mg/kg
  AUC(0-t): 2790 ng·h/mL
  bioavailability: 90.1%
  Cmax: 1320 ng/mL
[4]; SC 10 mg/kg
  AUC(0-t): 31600 ng·h/mL
  bioavailability: 102%
  Cmax: 12100 ng/mL
[4]; [9]
  Tmax: 0.3 to 0.4 h
[4]; [10]
  Cmax at 5 min: 5030 ng/mL
[4]; multi-exponential decline after reaching Cmax, read-out: Mean terminal elimination T1/2 (converted)
  half-life: ~2.6 h
[5]
  bioavailability: > 55%
[6]; [11]
  CL/F: 13.4 L/h
  λz: 0.200 h⁻¹
[6]; [12]
  CL/F: 12.6 L/h
  λz: 0.198 h⁻¹
[6]; [13]
  CL/F: 13.6 L/h
  λz: 0.221 h⁻¹
[6]; [14]
  CL/F: 13.4 L/h
  λz: 0.205 h⁻¹
[6]; days 1 and 14, both doses (0.5 and 1.0 mg/day), read-out: Mean T1/2
  half-life: 3 to 4 h
[6]; [15]
  Cmax: 8.12 ng/mL
  Tmax: 2.11 h
  AUC: 36.5 ng·h/mL
  Vd/F: 66.9 L
[6]; sc, 0.5 mg/day, Japanese prostate cancer patients, 2-hour SC infusion 0.5 mg/day, Day 1, mean, read-out: T1/2 (converted)
  half-life: 3.48 h
[6]; [16]
  Cmax: 8.13 ng/mL
  Tmax: 2.08 h
  AUC: 39.1 ng·h/mL
  Vd/F: 63.5 L
[6]; sc, 0.5 mg/day, Japanese prostate cancer patients, 2-hour SC infusion 0.5 mg/day, Day 14, mean, read-out: T1/2 (converted)
  half-life: 3.5 h
[6]; [17]
  Cmax: 16 ng/mL
  Tmax: 2.11 h
  AUC: 70.2 ng·h/mL
  Vd/F: 61.6 L
[6]; sc, 1 mg/day, Japanese prostate cancer patients, 2-hour SC infusion 1.0 mg/day, Day 1, mean, read-out: T1/2 (converted)
  half-life: 3.15 h
[6]; [18]
  Cmax: 15.5 ng/mL
  Tmax: 2.11 h
  AUC: 71.2 ng·h/mL
  Vd/F: 65.7 L
[6]; sc, 1 mg/day, Japanese prostate cancer patients, 2-hour SC infusion 1.0 mg/day, Day 14, mean, read-out: T1/2 (converted)
  half-life: 3.38 h
[6]; 0.5 mg/day, Day 1, mean
  AUC(0-inf): 36.8 ng·h/mL
  MRT: 4.78 h
[6]; 1.0 mg/day, Day 1, mean
  AUC(0-inf): 70.6 ng·h/mL
  MRT: 4.64 h
[7]
  Time of FSH return to baseline / predose level: ≤ 72 h
  Time of LH return to baseline: ≤ 72 h
